Literature values, collected in patent US20040110828A1, “Tetrahydrocannabinol compositions and methods of manufacture and use thereof” (priority 2002, published 2004).

CCCCCc1cc(O)c2c(c1)OC(C)(C)[C@@H]1CCC(C)=C[C@@H]21 [Delta 9-THC, Delta 9-tetrahydrocannabinol]
half-life of blood level (IV administration, slow phase after the initial distribution (first 30 minutes)): ≥ 19 h
compound and its metabolites remaining in the body (one week after an IV injection of a single dose): 25-30%
